{"source": "patent US20260217701A1", "about": "“SELECTIVE BET INHIBITORS AND USES THEREOF” (Tay Therapeutics Limited, priority 2022, published 2026)", "system": "imiquimod-induced psoriasis", "experiment": "Imiquimod-induced psoriasis model", "format": "in vivo, mice", "parameters": "Spleen Weight / Spleen Weight Ratio: unit not given here", "details": "for Mean scores of the presence of erythema on the skin of animals at the area of induction of psoriasis / Mean scores of the presence of induration on the skin of animals at the area of induction of psoriasis / Mean scores of the presence of peeling on the skin of animals at the area of induction of psoriasis: mean ± SEM", "how_it_was_run": "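Mice given topical imiquimod (5% cream) daily on depilated backs Days 1–14; Compound A in 5% DMSO/40% PEG-400/55% saline from Day 8, clobetasol topical as reference. Daily PASI (erythema, induration, peeling, each 0–4, summed) Days 8–15; spleen weight, open-field behaviour, serum IL-1B, IL-6, IL-17, TNF-α, IL-22, IL-23 at Day 15.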", "key": {"[1]": {"details": "IMI + 1 mg/kg, D8 (before start of treatment)"}, "[2]": {"details": "IMI + 3 mg/kg, D8 (before start of treatment)"}}, "note": "Values joined by “and” are separate entries in the source; they are usually repeats but may differ in a detail not shown here. Equal values may be shown once.", "data": [{"smiles": "COCCn1cc(-c2ccccc2)c(-c2cn(C)c(=O)c3[nH]c(-c4cnn(C(F)(F)F)c4)cc23)cc1=O", "note": "[Compound B, 4-(1-(2-methoxyethyl)-2-oxo-5-phenyl-1,2-dihydropyridin-4-yl)-6-methyl-2-(1-(trifluoromethyl)-1H-pyrazol-4-yl)-1,6-dihydro-7H-pyrrolo[2,3-c]pyridin-7-one]", "values": [{"measurement": "Spleen Weight Ratio", "setting": "IMI-psoriasis model, mice, 10 mg/kg, individual animals", "value": "1026.10 and 1000.89 and 999.24 and 691.05 and 654.43 and 926.75 and 782.83 and 888.53"}, {"measurement": "Spleen Weight Ratio", "setting": "day 15, 1, 3, 10 mg/kg", "value": "dose-dependent decrease"}, {"measurement": "efficacy on the treatment of psoriasis", "setting": "highest tested dose of 10 mg/kg", "value": "very good efficacy"}, {"measurement": "Mean scores of the presence of erythema on the skin of animals at the area of induction of psoriasis", "setting": "[1]", "value": "2.1 ± 0.1"}, {"measurement": "Mean scores of the presence of induration on the skin of animals at the area of induction of psoriasis", "setting": "[1]", "value": "2.5 ± 0.2"}, {"measurement": "Mean scores of the presence of peeling on the skin of animals at the area of induction of psoriasis", "setting": "[1]", "value": "2.1 ± 0.1"}, {"measurement": "Mean scores of the presence of erythema on the skin of animals at the area of induction of psoriasis", "setting": "IMI + 1 mg/kg, D9", "value": "1.8 ± 0.2"}, {"measurement": "Mean scores of the presence of induration on the skin of animals at the area of induction of psoriasis", "setting": "IMI + 1 mg/kg, D9", "value": "2.5 ± 0.2"}, {"measurement": "Mean scores of the presence of peeling on the skin of animals at the area of induction of psoriasis", "setting": "IMI + 1 mg/kg, D9", "value": "2.5 ± 0.3"}, {"measurement": "Mean scores of the presence of erythema on the skin of animals at the area of induction of psoriasis", "setting": "IMI + 1 mg/kg, D10", "value": "1.8 ± 0.2"}, {"measurement": "Mean scores of the presence of induration on the skin of animals at the area of induction of psoriasis", "setting": "IMI + 1 mg/kg, D10", "value": "2.3 ± 0.2"}, {"measurement": "Mean scores of the presence of peeling on the skin of animals at the area of induction of psoriasis", "setting": "IMI + 1 mg/kg, D10", "value": "2.0 ± 0.2"}, {"measurement": "Mean scores of the presence of erythema on the skin of animals at the area of induction of psoriasis", "setting": "IMI + 1 mg/kg, D11", "value": "2.3 ± 0.2"}, {"measurement": "Mean scores of the presence of induration on the skin of animals at the area of induction of psoriasis", "setting": "IMI + 1 mg/kg, D11", "value": "2.3 ± 0.3"}, {"measurement": "Mean scores of the presence of peeling on the skin of animals at the area of induction of psoriasis", "setting": "IMI + 1 mg/kg, D11", "value": "2.0 ± 0.1"}, {"measurement": "Mean scores of the presence of erythema on the skin of animals at the area of induction of psoriasis", "setting": "IMI + 1 mg/kg, D12", "value": "1.8 ± 0.2"}, {"measurement": "Mean scores of the presence of induration on the skin of animals at the area of induction of psoriasis", "setting": "IMI + 1 mg/kg, D12", "value": "2.0 ± 0.0"}, {"measurement": "Mean scores of the presence of peeling on the skin of animals at the area of induction of psoriasis", "setting": "IMI + 1 mg/kg, D12", "value": "1.9 ± 0.1"}, {"measurement": "Mean scores of the presence of erythema on the skin of animals at the area of induction of psoriasis", "setting": "IMI + 1 mg/kg, D13", "value": "1.5 ± 0.3"}, {"measurement": "Mean scores of the presence of induration on the skin of animals at the area of induction of psoriasis", "setting": "IMI + 1 mg/kg, D13", "value": "2.0 ± 0.0"}, {"measurement": "Mean scores of the presence of peeling on the skin of animals at the area of induction of psoriasis", "setting": "IMI + 1 mg/kg, D13", "value": "2.0 ± 0.3"}, {"measurement": "Mean scores of the presence of erythema on the skin of animals at the area of induction of psoriasis", "setting": "IMI + 1 mg/kg, D14", "value": "1.8 ± 0.3"}, {"measurement": "Mean scores of the presence of induration on the skin of animals at the area of induction of psoriasis", "setting": "IMI + 1 mg/kg, D14", "value": "2.0 ± 0.0"}, {"measurement": "Mean scores of the presence of peeling on the skin of animals at the area of induction of psoriasis", "setting": "IMI + 1 mg/kg, D14", "value": "1.9 ± 0.2"}, {"measurement": "Mean scores of the presence of erythema on the skin of animals at the area of induction of psoriasis", "setting": "IMI + 1 mg/kg, D15", "value": "1.5 ± 0.2"}, {"measurement": "Mean scores of the presence of induration on the skin of animals at the area of induction of psoriasis", "setting": "IMI + 1 mg/kg, D15", "value": "1.9 ± 0.1"}, {"measurement": "Mean scores of the presence of peeling on the skin of animals at the area of induction of psoriasis", "setting": "IMI + 1 mg/kg, D15", "value": "1.8 ± 0.3"}, {"measurement": "Mean scores of the presence of erythema on the skin of animals at the area of induction of psoriasis", "setting": "[2]", "value": "2.4 ± 0.2"}, {"measurement": "Mean scores of the presence of induration on the skin of animals at the area of induction of psoriasis", "setting": "[2]", "value": "2.6 ± 0.2"}, {"measurement": "Mean scores of the presence of peeling on the skin of animals at the area of induction of psoriasis", "setting": "[2]", "value": "2.6 ± 0.3"}, {"measurement": "Mean scores of the presence of erythema on the skin of animals at the area of induction of psoriasis", "setting": "IMI + 3 mg/kg, D9", "value": "1.9 ± 0.3"}, {"measurement": "Mean scores of the presence of induration on the skin of animals at the area of induction of psoriasis", "setting": "IMI + 3 mg/kg, D9", "value": "2.0 ± 0.0"}, {"measurement": "Mean scores of the presence of peeling on the skin of animals at the area of induction of psoriasis", "setting": "IMI + 3 mg/kg, D9", "value": "2.1 ± 0.0"}, {"measurement": "Mean scores of the presence of erythema on the skin of animals at the area of induction of psoriasis", "setting": "IMI + 3 mg/kg, D10", "value": "1.6 ± 0.2"}, {"measurement": "Mean scores of the presence of induration on the skin of animals at the area of induction of psoriasis", "setting": "IMI + 3 mg/kg, D10", "value": "2.1 ± 0.1"}, {"measurement": "Mean scores of the presence of peeling on the skin of animals at the area of induction of psoriasis", "setting": "IMI + 3 mg/kg, D10", "value": "2.0 ± 0.2"}, {"measurement": "Mean scores of the presence of erythema on the skin of animals at the area of induction of psoriasis", "setting": "IMI + 3 mg/kg, D11", "value": "1.9 ± 0.2"}, {"measurement": "Mean scores of the presence of induration on the skin of animals at the area of induction of psoriasis", "setting": "IMI + 3 mg/kg, D11", "value": "1.7 ± 0.2"}, {"measurement": "Mean scores of the presence of peeling on the skin of animals at the area of induction of psoriasis", "setting": "IMI + 3 mg/kg, D11", "value": "1.9 ± 0.1"}, {"measurement": "Mean scores of the presence of erythema on the skin of animals at the area of induction of psoriasis", "setting": "IMI + 3 mg/kg, D12", "value": "1.9 ± 0.1"}, {"measurement": "Mean scores of the presence of induration on the skin of animals at the area of induction of psoriasis", "setting": "IMI + 3 mg/kg, D12", "value": "1.9 ± 0.1"}, {"measurement": "Mean scores of the presence of peeling on the skin of animals at the area of induction of psoriasis", "setting": "IMI + 3 mg/kg, D12", "value": "1.6 ± 0.2"}, {"measurement": "Mean scores of the presence of erythema on the skin of animals at the area of induction of psoriasis", "setting": "IMI + 3 mg/kg, D13", "value": "1.5 ± 0.2"}, {"measurement": "Mean scores of the presence of induration on the skin of animals at the area of induction of psoriasis", "setting": "IMI + 3 mg/kg, D13", "value": "1.9 ± 0.1"}, {"measurement": "Mean scores of the presence of peeling on the skin of animals at the area of induction of psoriasis", "setting": "IMI + 3 mg/kg, D13", "value": "1.6 ± 0.2"}, {"measurement": "Mean scores of the presence of erythema on the skin of animals at the area of induction of psoriasis", "setting": "IMI + 3 mg/kg, D14", "value": "1.3 ± 0.2"}, {"measurement": "Mean scores of the presence of induration on the skin of animals at the area of induction of psoriasis", "setting": "IMI + 3 mg/kg, D14", "value": "1.9 ± 0.1"}, {"measurement": "Mean scores of the presence of peeling on the skin of animals at the area of induction of psoriasis", "setting": "IMI + 3 mg/kg, D14", "value": "1.5 ± 0.1"}, {"measurement": "Mean scores of the presence of erythema on the skin of animals at the area of induction of psoriasis", "setting": "IMI + 3 mg/kg, D15", "value": "0.9 ± 0.2"}, {"measurement": "Mean scores of the presence of induration on the skin of animals at the area of induction of psoriasis", "setting": "IMI + 3 mg/kg, D15", "value": "1.4 ± 0.2"}]}]}
